# Measured values: patent publication US20250066452A1, “SYNTHETIC AMPHIPATHIC HELICAL PEPTIDES AND TREATMENT METHODS USING SYNTHETIC AMPHIPATHIC HELICAL PEPTIDES” (UNIVERSITY OF MARYLAND, BALTIMORE, priority 2022, published 2025)
# No end group written: not given here.
# Legend:
# mice = test: Observation of adverse effects on repetitive daily skin application; format: in vivo
# [1] = tested on: Complete Freund's Adjuvant (CFA) animal model of chronic inflammatory pain; test: Thermal hyperalgesia test (incremental hot plate) in CFA model of chronic inflammatory pain; format: in vivo, mice; conditions: for heat hyperalgesia compared to the inactive L3D-L37pA peptide: Example 3, FIGS. 5(a)-5(e), topical application once a day; for withdrawal latencies to thermal stimuli: CFA in left paw
# Description: The L37pA peptide having the sequence […] (SEQ ID NO: 2) was synthesized by a solid-phase procedure. […] The L37pA and L3D-37pA peptides were formulated into both an intramuscular injectable preparation and a hydrogel or lotion preparation. The intramuscular (IM) injectable formulation contains 0.5 μg/μl of the peptide, with an injection dose of 2 μl/g mouse weight, which equals approximately 20 μg peptide per injection. The hydrogel and lotion formulations each contains 0.2 mg/ml of the peptide. 20-50 μl of the formulations are applied, which is approximately 4-10 μg peptide per single skin treatment. Topical hydrogel and lotion formulations containing a vehicle without any peptide were prepared as additional negative controls.
# In this experiment, the peptide was administered via intramuscular injections. The first group of mice (“CFA group”) were injected with 30 μl of Complete Freund's Adjuvant (CFA) in the plantar surface of the left hind paw. The second group of mice (“Vehicle Group”) were injected with Vehicle (saline) instead of CFA. For each of the CFA and Vehicle Groups, the mice were then injected once a day with the following formulations, with “n” representing the number of mice receiving each formulation: […]
# Thermal hyperalgesia was performed before the CFA injection. The measurement of baseline thermosensitivity was actually carried out before time 0, but it was assumed that the baseline remained the same at time 0. Injection of CFA in the paw and the intramuscular injection of peptide were performed at the same time. Injections of CFA and peptides were performed in left paws. The right paws of the mice remained intact and were used for comparison.
# After administering the L37pA or L3D-37pA peptide, the thermal hyperalgesia test was performed for 30 minutes at 3, 24, and 72 hours post CFA-injection. In the thermal hyperalgesia test, an incremental hot plate with an automatic cut-off temperature of 50° C. was used to induce the nocifensive behaviors of licking a hind paw to identify the thresholds for noxious heat and assess the thermal hyperalgesia. The temperature of the plate at the time when the licking occurred was recorded. The peptides were injected every single day and at 30 minutes prior to the behavior test. In addition, to investigate the effects of the peptides on inflammatory swelling caused by the CFA injection, the thicknesses of the left and right hind paws of the mice were measured post-peptide administration for signs of inflammation. In the figures, *p≤0.05, **p≤0.01, and ***p≤0.001 show comparisons to the Vehicle/L3D-37pA controls at each timepoint.
# In this experiment, the peptide was administered topically once a day. The first group of mice (“CFA group”) were injected with 30 μl of Complete Freund's Adjuvant (CFA) in the plantar surface of the left hind paw. The second group of mice (“Vehicle Group”) were injected with Vehicle (saline) instead of CFA. For each of the CFA and Vehicle groups, the topical formulation was then administered to the mice according to the following experiment design:
# The topical application of the peptides was carried out 21 hours after the saline or CFA injection and applied […] in the following days. In case of topical application of peptide, the peptides were applied 3 hours before the second measurement of thermosensitivity and applied […] afterwards. Thermal hyperalgesia was performed before administration and after administering the L37pA, L3D-37 pA, or vehicle, at 30 minutes after administration. The thermal hyperalgesia test was performed as described above. In addition, the thicknesses of the left and right hind paws of the mice were measured post-peptide administration for signs of inflammation. In the figures, *p 0.05, **p 0.01, and ***p 0.001 show comparisons to the saline/L3D-37pA controls at each timepoint.
# The applicant performed heat hyperalgesia tests similar to the manner discussed above in Example 1. […]
# CD36 = target: T1, CD36 (Homo sapiens, UniProt P16671); test: IL-8 in conditioned medium (ELISA) of CD36-expressing HEK293 cells after 20 hours incubation with CD36 ligands; format: cell-based; conditions: for IL-8 produced by cells treated with the ligand: CD36-expressing HEK293 cells, increasing ligand concentrations, 20 hours (FIG. 8)
# T1 construct: expressed in transfected cells; host or cells: HEK293
# T1 sequence (P16671 whole entry): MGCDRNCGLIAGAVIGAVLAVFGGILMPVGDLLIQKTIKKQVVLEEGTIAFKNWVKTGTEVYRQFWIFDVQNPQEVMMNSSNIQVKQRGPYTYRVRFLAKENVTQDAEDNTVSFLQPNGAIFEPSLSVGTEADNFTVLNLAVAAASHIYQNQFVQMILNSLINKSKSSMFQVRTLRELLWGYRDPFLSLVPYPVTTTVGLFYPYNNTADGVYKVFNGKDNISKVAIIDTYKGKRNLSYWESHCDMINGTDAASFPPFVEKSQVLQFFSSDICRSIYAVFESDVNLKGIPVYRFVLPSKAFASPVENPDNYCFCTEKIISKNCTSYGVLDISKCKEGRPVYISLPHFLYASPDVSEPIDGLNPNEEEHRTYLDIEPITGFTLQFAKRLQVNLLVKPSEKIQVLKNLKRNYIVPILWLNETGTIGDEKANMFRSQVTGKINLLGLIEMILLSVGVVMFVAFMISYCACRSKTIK
# Description: (§1) Following 20 hours incubation of wild-type (WT) and CD36-expressing (CD36+) HEK293 cells with increasing concentrations of CD36 ligands, the IL-8 levels were determined in conditioned medium by ELISA.
# Following 20 hours incubation of CD36-expressing cells with the indicated amounts of the ligands, the IL-8 levels were determined in conditioned medium.
# (§2) To study this, the applicant conducted cell culture experiments using wildtype (WT) and CD36+ expressing (CD36+) HEK293 cells, treated with increasing amounts of CD36 ligands. Specifically, the ligands tested were the PAMP lipopolysaccharide (LPS) and the DAMPs high mobility group box 1 protein (HMGB1), Histone H3B, and heat shock protein 60 (HSP60). […] Similarly to HSP60, it is presumed that HSP70 and HSP90 also cause inflammation mediated by the CD36 receptor, and which may be alleviated by the disclosed peptides.
# Additionally, the applicant studied the effects of the above-referenced SAHP L37pA as an inhibitor of CD36-dependent, PAMP/DAMP-induced pro-inflammatory response. See FIGS. 9(a)-9(c) To study this, the applicant conducted cell culture experiments using CD36+ HEK293 cells, treated with increasing amounts of CD36 ligands. […] As controls, no treatment, L37pA alone, and L3D alone were administered.
# As controls, no treatment, L37pA alone, and L3D alone were administered. […] L37pA was especially effective in the case of 1 μg/ml and 2.5 μg/ml HMGB1, relative to administrations of HMGB1 alone.
# In FIG. 9(c), the DAMP Histone H3B was administered in the amount of 25 μg/ml alone, in combination with 10 μg/ml L37pA, 25 μg/ml L37pA, 10 μg/ml L3D and 25 µg/ml L3D. As controls, no treatment, 10 μg/ml L37pA alone, 25 μg/ml L37pA alone, 10 μg/ml L3D alone, and 25 μg/ml L3D alone were administered.
# [2] = tested on: wild-type (WT) HEK293 cells; test: IL-8 in conditioned medium (ELISA) of wild-type HEK293 cells after 20 hours incubation with CD36 ligands; format: cell-based; conditions: wildtype HEK293 cells; increasing ligand concentrations; 20 hours (FIG. 8)
# Description: as §1, §2
substance,measurement,setting,value
DWLKAFYDKVAEKLKEAFPDWLKAFYDKVAEKLKEAF [Peptide L37pA],skin irritation or other adverse side effects,mice; chronic topical administration in the therapeutic range of doses,does not induce skin irritation or other adverse side effects
same,"adverse effects (general toxicity, behavioral changes, weight loss, skin redness, skin erosions)",mice; up to 14 repetitive daily skin applications of hydrogel formulation,no adverse effects
EKLLELLKKLLELLKKLLPDWLKAFYDKVAEKLKEAF [ELK-B-P-18A],heat hyperalgesia compared to the inactive L3D-L37pA peptide,[1]; CFA,"improved heat hyperalgesia compared to the inactive L3D-L37pA peptide at 3 hours, and particularly improved heat hyperalgesia at 7 days"
EKLLELLKKLLELLKKLLPEKLLELLKKLLELLKKLL [ELK-B],heat hyperalgesia compared to the inactive L3D-L37pA peptide,[1]; CFA,"slightly improved heat hyperalgesia compared to the active L3D-L37pA peptide at 1 day, and similar heat hyperalgesia at other timepoints"
"L3D-37pA: inactive L37pA peptide where three L-lysine's in each A18 were replaced with D-lysine's disrupting the helical structure; negative control (DWLKAFYDKVAEKLKEAFPDWLKAFYDKVAEKLKEAF; also: three of the four Lys in each A18 segment are D-Lys, places not given here) [Peptide L3D-37pA]",production of IL-8 relative to LPS alone,"CD36; 10 ng/ml and 100 ng/ml LPS, 10 μg/ml peptide, CD36+ HEK293 cells, 20 hours",ineffective or only slightly effective
same,production of IL-8 relative to Histone H3B alone,"CD36; 25 μg/ml Histone H3B, 10 μg/ml and 25 μg/ml peptide, CD36+ HEK293 cells, 20 hours",ineffective or only slightly effective
same,production of IL-8 relative to HMGB1 alone,"CD36; 0.25, 1 and 2.5 μg/ml HMGB1, 10 μg/ml peptide, CD36+ HEK293 cells, 20 hours",ineffective or only slightly effective
same,withdrawal latencies to thermal stimuli,"[1]; intramuscular peptide approx. 20 μg per injection once a day, 3 hours after CFA (FIG. 2(a))",reduction was even more exaggerated
same,withdrawal latencies to thermal stimuli,"[1]; intramuscular peptide approx. 20 μg per injection once a day, 24 hours after CFA (FIG. 2(a))",only showed a minimal increase
same,withdrawal latencies to thermal stimuli,"[1]; intramuscular peptide approx. 20 μg per injection once a day, three days after CFA (FIG. 2(a))",still showed a significant reduction of withdrawal latencies
same,withdrawal latencies to thermal stimuli,"[1]; topical application 0.2 mg/ml, 24 hours and 3 days after CFA (FIG. 3(a))",remained reduced with only slight increase
same,pain sensation in response to stimuli,"[1]; CFA model, topical hydrogel or lotion, and local intramuscular injection",did not show any pain-reducing activities
same,paw withdrawal temperature of inflamed paws,"[1]; CFA, topical hydrogel or local intramuscular injection, within 3 days post-CFA (FIGS. 2(a), 3(a))",without effect
same,heat hyperalgesia (response temperature),"[1]; Example 2, FIG. 4, CFA, intramuscular injection, 24 h, 3 d, 7 d",did not reduce heat hyperalgesia at any time point
high mobility group box 1 protein [HMGB1],IL-8 produced by cells treated with the ligand,[2],minimal amount of interleukin 8
same,IL-8 produced by cells treated with the ligand,CD36,significant amount of IL-8
lipopolysaccharide [LPS],IL-8 produced by cells treated with the ligand,[2],minimal amount of interleukin 8
same,IL-8 produced by cells treated with the ligand,CD36,significant amount of IL-8
